Source: patent US20230073777A1, “CYCLIC-AMP RESPONSE ELEMENT BINDING PROTEIN (CBP) AND/OR ADENOVIRAL E1A BINDING PROTEIN OF 300 KDA (P300) DEGRADATION COMPOUNDS AND METHODS OF USE” (CULLGEN (SHANGHAI), INC., priority 2019, published 2023)

Tests used:
LNCaP cells = assay: LNCaP cell viability assay (CellTiter-Glo); type: cell-based; settings: Homo sapiens
Method in brief: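 LNCaP cells, 5000/well, exposed to compounds in 12-point 3-fold serial dilution (top 10 μM) for 3 days. Viability by CellTiter-Glo luminescence, normalized to untreated cells; IC50 by least-squares nonlinear regression.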

Kasumi-1 = assay: Cell viability assay, Kasumi-1; type: cell-based; settings: Homo sapiens, Kasumi-1, Acute myeloid leukemia
Procedure: (§1) Cells were seeded at a density of 5000 cells per well in 96-well assay plates and treated with test compounds following a 12-point 3-fold serial dilution. Three days later, cell viability was determined using the CellTiter-Glo assay kit according to the manufacturer's instructions. The dose-response curves were determined and IC50 values were calculated using the GraphPad Prism software following a nonlinear regression (least squares fit) method.
(§2) The IC50 value of each compound was determined as described in FIG. 4 and calculated using the GraphPad Prism 5.0 software.

NOMO-1 = assay: Cell viability assay, NOMO-1; type: cell-based; settings: Homo sapiens, NOMO-1, Acute monocytic leukemia
Procedure: as §1, §2

HL-60 = assay: Cell viability assay, HL-60; type: cell-based; settings: Homo sapiens, HL-60, Acute myeloid leukemia
Procedure: as §1, §2

MEG-01 = assay: Cell viability assay, MEG-01; type: cell-based; settings: Homo sapiens, MEG-01, Chronic myeloid leukemia
Procedure: as §1, §2

MM.1R = assay: Cell viability assay, MM.1R; type: cell-based; settings: Multiple Myeloma
Procedure: as §1, §2

NCI-H929 = assay: Cell viability assay, NCI-H929; type: cell-based; settings: Homo sapiens, NCI-H929, Multiple Myeloma
Procedure: as §1, §2

L-363 = assay: Cell viability assay, L-363; type: cell-based; settings: Homo sapiens, L-363, Multiple myeloma
Procedure: as §1, §2

RPMI-8226 = assay: Cell viability assay, RPMI-8226; type: cell-based; settings: Homo sapiens, RPMI-8226, Multiple myeloma
Procedure: as §1, §2

22Rv1 = assay: Cell viability assay, 22Rv1; type: cell-based; settings: Homo sapiens, 22Rv1, Prostate carcinoma
Procedure: as §1, §2

NCI-H1703 = assay: Cell viability assay, NCI-H1703; type: cell-based; settings: Homo sapiens, NCI-H1703, Non-small cell lung cancer
Procedure: as §1, §2

CBP = target: T1, CBP (Homo sapiens, UniProt Q92793); assay: Pharmacodynamic study, CBP in 22RV1 subcutaneous xenograft tumors; type: in vivo, Athymic nude mice; settings: single dose 40 mg/kg, i.p. or p.o., six hours after administration (FIG. 9)
T1 construct: from tissue; host or cells: 22RV1 subcutaneous xenograft tumours in athymic nude mice
T1 sequence (Q92793 whole entry): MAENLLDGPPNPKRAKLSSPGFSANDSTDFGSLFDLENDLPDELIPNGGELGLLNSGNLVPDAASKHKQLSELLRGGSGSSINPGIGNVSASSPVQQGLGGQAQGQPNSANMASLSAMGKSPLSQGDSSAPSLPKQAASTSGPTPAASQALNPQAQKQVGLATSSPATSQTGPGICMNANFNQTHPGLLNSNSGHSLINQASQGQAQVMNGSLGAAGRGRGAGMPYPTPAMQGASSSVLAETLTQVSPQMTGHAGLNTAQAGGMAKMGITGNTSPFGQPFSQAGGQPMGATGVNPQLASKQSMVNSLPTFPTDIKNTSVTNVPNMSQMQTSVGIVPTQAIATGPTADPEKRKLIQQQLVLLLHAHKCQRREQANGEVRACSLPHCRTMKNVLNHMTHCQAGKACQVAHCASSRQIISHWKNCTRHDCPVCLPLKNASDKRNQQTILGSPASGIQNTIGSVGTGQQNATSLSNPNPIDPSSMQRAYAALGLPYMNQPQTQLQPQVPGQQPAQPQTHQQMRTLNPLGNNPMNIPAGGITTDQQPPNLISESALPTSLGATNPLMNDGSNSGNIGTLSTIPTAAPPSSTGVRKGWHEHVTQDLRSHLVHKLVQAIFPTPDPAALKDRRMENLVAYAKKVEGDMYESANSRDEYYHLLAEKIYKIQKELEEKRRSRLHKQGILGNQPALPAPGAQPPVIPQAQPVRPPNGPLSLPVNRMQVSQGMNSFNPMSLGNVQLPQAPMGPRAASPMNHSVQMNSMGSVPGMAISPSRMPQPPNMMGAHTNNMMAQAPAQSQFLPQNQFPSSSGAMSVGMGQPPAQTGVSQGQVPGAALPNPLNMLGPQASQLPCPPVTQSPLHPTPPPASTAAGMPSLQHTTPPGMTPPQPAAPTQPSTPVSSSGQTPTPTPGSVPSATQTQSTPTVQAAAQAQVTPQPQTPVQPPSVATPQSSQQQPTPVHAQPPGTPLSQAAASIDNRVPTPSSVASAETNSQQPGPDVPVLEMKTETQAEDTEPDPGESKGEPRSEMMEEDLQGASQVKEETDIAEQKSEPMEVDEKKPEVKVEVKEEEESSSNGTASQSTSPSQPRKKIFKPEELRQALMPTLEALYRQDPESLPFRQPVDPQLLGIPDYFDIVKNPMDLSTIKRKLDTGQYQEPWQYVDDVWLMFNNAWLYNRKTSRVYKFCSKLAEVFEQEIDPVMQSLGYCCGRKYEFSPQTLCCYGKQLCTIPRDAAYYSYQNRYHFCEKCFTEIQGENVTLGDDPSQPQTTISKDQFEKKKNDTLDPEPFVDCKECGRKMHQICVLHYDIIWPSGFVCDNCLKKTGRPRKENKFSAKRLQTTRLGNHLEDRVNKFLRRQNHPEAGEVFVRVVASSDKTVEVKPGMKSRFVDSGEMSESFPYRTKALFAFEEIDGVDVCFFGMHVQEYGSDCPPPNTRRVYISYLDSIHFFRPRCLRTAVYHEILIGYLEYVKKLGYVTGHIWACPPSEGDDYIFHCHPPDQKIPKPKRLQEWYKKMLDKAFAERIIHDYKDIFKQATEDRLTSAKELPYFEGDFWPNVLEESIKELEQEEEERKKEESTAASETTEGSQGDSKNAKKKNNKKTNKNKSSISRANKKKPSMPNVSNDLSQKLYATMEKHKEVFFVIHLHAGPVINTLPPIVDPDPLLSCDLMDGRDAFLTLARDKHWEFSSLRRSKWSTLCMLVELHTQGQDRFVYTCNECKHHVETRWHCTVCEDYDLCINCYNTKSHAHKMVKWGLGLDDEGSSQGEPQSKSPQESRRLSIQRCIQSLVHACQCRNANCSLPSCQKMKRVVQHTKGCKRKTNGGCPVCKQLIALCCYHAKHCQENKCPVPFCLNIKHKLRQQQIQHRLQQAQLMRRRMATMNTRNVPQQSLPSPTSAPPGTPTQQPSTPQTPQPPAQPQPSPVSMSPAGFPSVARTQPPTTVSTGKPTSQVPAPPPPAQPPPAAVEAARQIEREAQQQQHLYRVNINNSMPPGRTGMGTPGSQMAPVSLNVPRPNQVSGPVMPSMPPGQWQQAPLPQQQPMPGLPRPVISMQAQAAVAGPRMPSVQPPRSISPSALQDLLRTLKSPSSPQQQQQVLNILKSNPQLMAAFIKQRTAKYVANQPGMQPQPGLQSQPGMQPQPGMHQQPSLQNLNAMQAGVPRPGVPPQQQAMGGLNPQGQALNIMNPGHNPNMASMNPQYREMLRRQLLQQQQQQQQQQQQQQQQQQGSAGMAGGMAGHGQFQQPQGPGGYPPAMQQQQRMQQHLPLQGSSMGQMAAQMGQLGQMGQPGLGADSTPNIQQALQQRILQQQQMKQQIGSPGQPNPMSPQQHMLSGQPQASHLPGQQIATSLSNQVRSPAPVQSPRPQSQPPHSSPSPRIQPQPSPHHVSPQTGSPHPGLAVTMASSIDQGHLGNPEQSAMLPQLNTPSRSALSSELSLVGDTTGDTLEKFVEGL
Procedure: In addition to cultured cells, athymic nude mice bearing 22RV1 subcutaneous xenograft tumors at the right flank were intraperitoneally or orally treated with 40 mg/kg bivalent compounds. Six hours after drug administration, animals were sacrificed for immunoblotting of P300 and CBP in homogenized xenograft tumor masses. […] Moreover, ICR mice were orally treated with 40 mg/kg bivalent compounds. Six hours after drug administration, animals were sacrificed for immunoblotting of CBP in homogenized lung tissues.
Athymic nude mice bearing 22RV1 subcutaneous xenograft tumors at the right flank were intraperitoneally or orally treated with selected bivalent compounds at 40 mg/kg. Six hours after drug administration, animals were sacrificed, and xenograft tumors were collected for immunoblotting of P300 and CBP.
All animal experiments were performed under protocols approved by the Institutional Animal Care and Use Committee (IACUC) of Cullgen. Athymic nude mice (male, 5-weeks old) received 5 million 22RV1 cells subcutaneously inoculated at the right flank site. Twenty days following inoculation, tumors were approximately 500 mm^3 in size. Tumor-bearing mice were treated intraperitoneally or via oral gavage with vehicle or bivalent compounds at indicated doses. 6 hours after drug administration, animals were sacrificed, tumors were resected. Small chunks of tumors were homogenized for immunoblotting of P300/CBP and other proteins as indicated. Alternatively, ICR mice (male, 5-weeks old) were treated via oral gavage with vehicle or bivalent compounds at indicated doses. 6 hours after drug administration, animals were sacrificed, lung tissues were resected. Small chunks of lung tissues were homogenized for immunoblotting of CBP and other proteins as indicated.

[1] = 72 h, LNCaP prostate cancer cell viability inhibition, 3 days, CellTiter-Glo (Table 2)
[2] = cell viability, LNCaP clone FGC, Prostate carcinoma (Table 4)

IC50 (LNCaP cells; [1]) | IC50 (LNCaP cells; [2]) | IC50 (HL-60) | IC50 (MM.1R) | IC50 (NCI-H929) | IC50 (RPMI-8226) | IC50 (22Rv1) | IC50 (NCI-H1703) | CBP protein levels in 22RV1 xenograft tumors (CBP) | Structure (SMILES) | IC50 (Kasumi-1) | IC50 (NOMO-1) | IC50 (MEG-01) | IC50 (L-363)
0.4 nM | 0.6 nM | 2.9 nM | 0.1 nM | 0.2 nM | 9.4 nM | 8.2 nM | 2.9 nM | significantly reducing | CNC(=O)N1CCc2c(c(N3CCCc4cc(-c5cnn(C)c5)c(C(F)F)cc43)nn2C2CCN(C(=O)CCCCCNc3cccc4c3C(=O)N(C3CCC(=O)NC3=O)C4=O)CC2)C1 (stereo not drawn) [P-034, 3-(7-(difluoromethyl)-6-(1-methyl-1H-pyrazol-4-yl)-3,4-dihydroquinolin-1(2H)-yl)-1-(1-(6-((2-(2,6-dioxopiperidin-3-yl)-1,3-dioxoisoindolin-4-yl)amino)hexanoyl)piperidin-4-yl)-N-methyl-1,4,6,7-tetrahydro-5H-pyrazolo[4,3-c]pyridine-5-carboxamide] | 1150 nM | 0.8 nM | 15.3 nM | 0.4 nM
1.2 nM | 1.3 nM | 17 nM | 0.3 nM | 0.9 nM | 3.7 nM | 3.2 nM | – | significantly reducing | CNC(=O)N1CCc2c(c(N3CCCc4cc(-c5cnn(C)c5)c(C(F)F)cc43)nn2C2CCN(C(=O)CCCCCCCNc3ccc4c(c3)C(=O)N(C3CCC(=O)NC3=O)C4=O)CC2)C1 (stereo not drawn) [P-007, 3-(7-(difluoromethyl)-6-(1-methyl-1H-pyrazol-4-yl)-3,4-dihydroquinolin-1(2H)-yl)-1-(1-(8-((2-(2,6-dioxopiperidin-3-yl)-1,3-dioxoisoindolin-5-yl)amino)octanoyl)piperidin-4-yl)-N-methyl-1,4,6,7-tetrahydro-5H-pyrazolo[4,3-c]pyridine-5-carboxamide] | 87.8 nM | – | 7.9 nM | 3 nM
